Test results published in publication PMC12498416, “Design of Tau Aggregation Inhibitors Using Iterative Machine Learning and a Polymorph-Specific Brain-Seeded Fibril Amplification Assay” (Journal of the American Chemical Society, 2025).

Legend:
[1] = target: T1, K12 tau (first-generation AD-brain-seeded K12 fibrils) (Homo sapiens, UniProt P10636, C639A); assay: ThT seeded aggregation kinetics ([…]/t1/[…]); format: biochemical; settings: read-out: KIC50; 5 μM K12 monomer seeded with 50 nM first-generation AD-derived K12 seeds; 250 mM Na3citrate, 10 mM HEPES pH 7.4; 1% DMSO; quiescent; inhibition of fibril formation
T1 construct: gene MAPT; 3R fragment; E. coli; amyloid fibrils seeded with Alzheimer's disease brain homogenate, heparin-free
T1 sequence (P10636 561-717 C639A): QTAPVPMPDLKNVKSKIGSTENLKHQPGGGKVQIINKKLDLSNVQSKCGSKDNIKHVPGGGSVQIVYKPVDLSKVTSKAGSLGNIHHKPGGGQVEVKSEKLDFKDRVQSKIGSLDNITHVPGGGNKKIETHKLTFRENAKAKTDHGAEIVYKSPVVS

[2] = target: T1, K12 tau (first-generation AD-brain-seeded K12 fibrils); assay: fluorescence polarization with K12 fibrils; settings: 10 μM compound; AD-seeded K12 fibrils (monomer equivalents); 250 mM Na3citrate, 10 mM HEPES pH 7.4; 1% DMSO; room temperature; one-step binding fit

SMILES | IC50 [1] [µM] | Kd [2] [µM]
Cc1noc(C2CCN(C(=O)CNC(=O)c3ccccc3)C2)n1 (stereo not shown) [I1.21] | 2.6 ± 0.5 | 1.58 ± 0.15
Cc1noc(C2CCN(C(=O)CCCc3ccccc3)CC2)n1 [I1.51] | 7.4 ± 5 | 0.74 ± 0.28
